Data as given in BindingDB's records for doi:10.1016/s0968-0896(98)00004-2 (Sankyo, 1998).

Target: T1, Dimer of Gag-Pol polyprotein [489-587] (Human immunodeficiency virus 1, UniProt P12497)
T1 construct: 489-587
Test: Protease Inhibition Assay
Protocol: The inhibitory activities of the compounds toward HIV-1 PR were determined by sodium dodecyl sulfate-polyacrylamide gel electrophoresis (SDS-PAGE) assay. The IC50 values of active compounds were determined using the partially purified protease and the synthetic substrate Ac-Ser-Gln-AsnTyr-Pro-Ile-Val-NH2.

## CC(C)(C)NC(=O)[C@@H]1C[C@H](Cl)CN1C(=O)[C@@H](O)[C@H](Cc1ccccc1)NC(=O)OC1CCSC1 (stereo partly drawn) [thiolan-3-yl N-[(2S,3S)-4-[(2S,4S)-2-(tert-butylcarbamoyl)-4-chloropyrrolidin-1-yl]-3-hydroxy-4-oxo-1-phenylbutan-2-yl]carbamate]
  IC50: 7.7 nM
